Experimental data published in the supplement of paper PMC11061612.

Columns and labels:
[1] = system: U-266 (Plasma Cell Myeloma); experiment: Bliss excess, mean over the matrix (fraction); higher = more synergy
Summary of the method: (§1)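 After 24 hours at 37°C and 5% CO2 in 1536-well plates, cells in DMEM/F12 or RPMI plus 10% FBS received two-drug dose matrices for 72 hours. Viability came from CellTiter-Glo 2.0 luminescence and was scaled as inhibition, anchored at 0 by vehicle wells and at 1 by blank wells. Combination Emax is taken as the second-highest inhibition in the matrix, and Bliss excess as the observed combination effect less EA + EB − EA·EB, with EA and EB the single-agent effects.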

[2] = system: NCI-H211 (Small Cell Lung Carcinoma); experiment: as above
Summary of the method: as §1

[3] = system: LS-513 (Colorectal Carcinoma); experiment: as above
Summary of the method: as §1

[4] = system: NCI-H211 (Small Cell Lung Carcinoma); experiment: combination Emax (second highest fraction inhibited in the dose matrix, 72 h); higher = more inhibition; extreme values may be limits of the assay
Summary of the method: as §1
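For Bliss excess, mean over the matrix in this document: after 72 h of two-drug dosing.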

| SMILES | Bliss excess [1] | Bliss excess [2] | Bliss excess [3] | combination Emax [4] |
| --- | --- | --- | --- | --- |
| COc1nnc2ccc(N3CCC(c4ccc(OCCN5CCN(C)C(=O)[C@H]5C)cc4)CC3)nn12 [AZD5153] + C=CCn1c(=O)c2cnc(Nc3ccc(N4CCN(C)CC4)cc3)nc2n1-c1cccc(C(C)(C)O)n1 [AZD1775] (first compound max 1 µM, partner max 1 µM) | -0.0922 | -0.0008 | -0.0603 | 0.993 |
| COc1nnc2ccc(N3CCC(c4ccc(OCCN5CCN(C)C(=O)[C@H]5C)cc4)CC3)nn12 [AZD5153] + CC1(C)CCC(CN2CCN(c3ccc(C(=O)NS(=O)(=O)c4ccc(NCC5CCOCC5)c([N+](=O)[O-])c4)c(Oc4cnc5[nH]ccc5c4)c3)CC2)=C(c2ccc(Cl)cc2)C1 [Venetoclax] (first compound max 1 µM, 7x7, partner max 1 µM) | -0.157 | 0.03 | -0.0442 | 1 |
| COc1nnc2ccc(N3CCC(c4ccc(OCCN5CCN(C)C(=O)[C@H]5C)cc4)CC3)nn12 [AZD5153] + CCN(CCO)CCCOc1ccc2c(Nc3cc(CC(=O)Nc4cccc(F)c4)[nH]n3)ncnc2c1 [AZD2811] (first compound max 1 µM, 7x7, partner max 1 µM) | -0.0763 | -0.0081 | -0.102 | 1 |
| COc1nnc2ccc(N3CCC(c4ccc(OCCN5CCN(C)C(=O)[C@H]5C)cc4)CC3)nn12 [AZD5153] + C[C@@H]1COCCN1C2=NC(=NC(=C2)C3(CC3)[S@](=N)(=O)C)C4=C5C=CNC5=NC=C4 [AZD6738] (first compound max 1 µM, 7x7, partner max 10 µM) | -0.079 | -0.008 | -0.0211 | 1 |
| COc1nnc2ccc(N3CCC(c4ccc(OCCN5CCN(C)C(=O)[C@H]5C)cc4)CC3)nn12 [AZD5153] + Cc1c2c(nn1C)CSCc1cc(n(C)n1)CSc1cc(c3ccccc3c1)OCCCc1c(C(=O)O)n(C)c3c-2c(Cl)ccc13 [AZD5991] (first compound max 1 µM, 7x7, partner max 1 µM) | -0.106 | -0.0175 | -0.0549 | 1 |
| COc1nnc2ccc(N3CCC(c4ccc(OCCN5CCN(C)C(=O)[C@H]5C)cc4)CC3)nn12 [AZD5153] + Cn1cnc2c(F)c(Nc3ccc(Br)cc3Cl)c(C(=O)NOCCO)cc21 [Selumetinib] (first compound max 1 µM, 7x7, partner max 10 µM) | 0.0347 | 0.0477 | -0.0213 | 1 |
| NC1(C(=O)N[C@@H](CCO)c2ccc(Cl)cc2)CCN(c2ncnc3[nH]ccc23)CC1 [Capivasertib] + CC(=O)c1c(C)c2cnc(Nc3ccc(N4CCNCC4)cn3)nc2n(C2CCCC2)c1=O [Palbociclib] (first compound max 10 µM, 7x7, partner max 10 µM) | -0.0606 | 0.0926 | -0.0138 | 0.59 |
| NC1(C(=O)N[C@@H](CCO)c2ccc(Cl)cc2)CCN(c2ncnc3[nH]ccc23)CC1 [Capivasertib] + CC(C)n1c(=O)n(C)c2cnc3cc(F)c(-c4ccc(OCCCN5CCCCC5)nc4)cc3c21 [AZD1390] (first compound max 10 µM, 7x7, partner max 0.3 µM) | -0.101 | -0.0294 | -0.0511 | 0.488 |
| NC1(C(=O)N[C@@H](CCO)c2ccc(Cl)cc2)CCN(c2ncnc3[nH]ccc23)CC1 [Capivasertib] + CCN(CCO)CCCOc1ccc2c(Nc3cc(CC(=O)Nc4cccc(F)c4)[nH]n3)ncnc2c1 [AZD2811] (first compound max 10 µM, 7x7, partner max 1 µM) | -0.105 | -0.0107 | -0.0771 | 0.944 |
| NC1(C(=O)N[C@@H](CCO)c2ccc(Cl)cc2)CCN(c2ncnc3[nH]ccc23)CC1 [Capivasertib] + COc1nnc2ccc(N3CCC(c4ccc(OCCN5CCN(C)C(=O)[C@H]5C)cc4)CC3)nn12 [AZD5153] (first compound max 10 µM, 7x7, partner max 1 µM) | 0.0076 | -0.0113 | -0.0246 | 1 |
| NC1(C(=O)N[C@@H](CCO)c2ccc(Cl)cc2)CCN(c2ncnc3[nH]ccc23)CC1 [Capivasertib] + C[C@@H]1COCCN1C2=NC(=NC(=C2)C3(CC3)[S@](=N)(=O)C)C4=C5C=CNC5=NC=C4 [AZD6738] (first compound max 10 µM, 7x7, partner max 10 µM) | -0.0793 | 0.0232 | -0.0697 | 0.665 |
| NC1(C(=O)N[C@@H](CCO)c2ccc(Cl)cc2)CCN(c2ncnc3[nH]ccc23)CC1 [Capivasertib] + Cn1cnc2c(F)c(Nc3ccc(Br)cc3Cl)c(C(=O)NOCCO)cc21 [Selumetinib] (first compound max 10 µM, 7x7, partner max 10 µM) | 0.0745 | 0.119 | 0.0031 | 0.568 |
| Cc1nc(Nc2ncc(C(=O)Nc3c(C)cccc3Cl)s2)cc(N2CCN(CCO)CC2)n1 [Dasatinib] + CC(=O)Nc1cccc(-n2c(=O)n(C3CC3)c(=O)c3c(Nc4ccc(I)cc4F)n(C)c(=O)c(C)c32)c1 [Trametinib] (first compound max 2 µM, 7x7, partner max 1 µM) | 0.0609 | 0.0556 | 0.0777 | 0.456 |
| COc1cc2ncnc(Nc3ccc(F)c(Cl)c3)c2cc1OCCCN1CCOCC1 [Gefitinib] + CC(C)n1c(=O)n(C)c2cnc3cc(F)c(-c4ccc(OCCCN5CCCCC5)nc4)cc3c21 [AZD1390] (first compound max 10 µM, 7x7, partner max 0.3 µM) | -0.0442 | -0.053 | -0.0362 | 0.227 |
| CS(=O)(=O)CCNCc1ccc(-c2ccc3ncnc(Nc4ccc(OCc5cccc(F)c5)c(Cl)c4)c3c2)o1 [Lapatinib] + C[C@@H](Oc1cc(-c2cnn(C3CCNCC3)c2)cnc1N)c1c(Cl)ccc(F)c1Cl [Crizotinib] (first compound max 10 µM, 7x7, partner max 10 µM) | -0.0574 | -0.0329 | -0.023 | 0.948 |
| CC(=O)c1c(C)c2cnc(Nc3ccc(N4CCNCC4)cn3)nc2n(C2CCCC2)c1=O [Palbociclib] + CC1(C)CCC(CN2CCN(c3ccc(C(=O)NS(=O)(=O)c4ccc(NCC5CCOCC5)c([N+](=O)[O-])c4)c(Oc4cnc5[nH]ccc5c4)c3)CC2)=C(c2ccc(Cl)cc2)C1 [Venetoclax] (first compound max 10 µM, 7x7, partner max 1 µM) | -0.116 | 0.0694 | 0.0202 | 0.965 |
| CC(=O)c1c(C)c2cnc(Nc3ccc(N4CCNCC4)cn3)nc2n(C2CCCC2)c1=O [Palbociclib] + Cc1c2c(nn1C)CSCc1cc(n(C)n1)CSc1cc(c3ccccc3c1)OCCCc1c(C(=O)O)n(C)c3c-2c(Cl)ccc13 [AZD5991] (first compound max 10 µM, 7x7, partner max 1 µM) | -0.019 | 0.118 | -0.0235 | 0.905 |
| CC1(C)CCC(CN2CCN(c3ccc(C(=O)NS(=O)(=O)c4ccc(NCC5CCOCC5)c([N+](=O)[O-])c4)c(Oc4cnc5[nH]ccc5c4)c3)CC2)=C(c2ccc(Cl)cc2)C1 [Venetoclax] + C[C@@H](Nc1cc(F)cc(F)c1)c1cc(C(=O)N(C)C)cc2c(=O)cc(N3CCOCC3)oc12 [AZD8186] (first compound max 1 µM, 7x7, partner max 3 µM) | 0.0357 |  | -0.0551 |  |
| CC1(C)CCC(CN2CCN(c3ccc(C(=O)NS(=O)(=O)c4ccc(NCC5CCOCC5)c([N+](=O)[O-])c4)c(Oc4cnc5[nH]ccc5c4)c3)CC2)=C(c2ccc(Cl)cc2)C1 [Venetoclax] + Cc1cc2ncnn2cc1Nc1ncc2c(n1)n(C1CCOCC1)c(=O)n2C [AZD7648] (first compound max 1 µM, 7x7, partner max 10 µM) | 0.0148 |  | -0.0294 |  |
| CC1(C)CCC(CN2CCN(c3ccc(C(=O)NS(=O)(=O)c4ccc(NCC5CCOCC5)c([N+](=O)[O-])c4)c(Oc4cnc5[nH]ccc5c4)c3)CC2)=C(c2ccc(Cl)cc2)C1 [Venetoclax] + Cn1cnc2c(F)c(Nc3ccc(Br)cc3Cl)c(C(=O)NOCCO)cc21 [Selumetinib] (first compound max 1 µM, 7x7, partner max 3 µM) | 0.0137 |  | -0.0159 |  |
